Entries after “also recorded” stand apart in the source; their conditions may differ.
Assays:
[1] = test system: bone cancer pain (BCP) rat model; test: Analgesic effect on mechanical hyperalgesia (PWT) in BCP rat model; assay type: in vivo; conditions: for analgesic effect on BCP, low dose: repeated
Procedure: The tumor cell implantation (TCI) surgery was performed according to the method proposed by Medhurst S J, et al (Medhurst S. J., Walker K., Bowes M., Kidd B. L., Glatt M., Muller M., et al. (2002). A rat model of bone cancer pain. Pain 96 129-140). Walker 256 mammary gland carcinoma cells were transferred from a liquid nitrogen tank, thawed quickly in a 37° C. water bath and loaded into a centrifugal tube. Then the cells were added with an appropriate amount of normal saline and centrifuged at 1200 r/min for 6 min. The supernatant was discarded, and the cells were washed again, and suspended with phosphate buffered saline (PBS) to 1×10^7/mL. Young female SD rats, weighing 90-100 g, were intraperitoneally injected with 0.5 mL of mammary gland carcinoma cells, and a large amount of ascites occurred after 6-7 days of the injection. 10 mL of ascites was extracted and centrifuged for 5 min. The precipitate was washed with normal saline and then diluted with PBS to 1×10^5/mL. The rats were anesthetized with 10% chloral hydrate and shaved, and a 1-cm incision was made in the upper half skin of the right tibia to expose the bone surface with a minimal damage to the surrounding muscle or blood vessels. The bone was pierced with a 4 # needle at 5 mm below a knee joint distal to an epiphysial growth plate, and the needle was inserted to a depth so that it can be pushed into the medullary cavity. The needle was then removed, and a 10 […] needle containing cells to be injected was inserted into the medullary cavity, determining whether the needle was located in the medullary cavity by withdrawal. 5 mL (1×10^5/mL) of cancer cells were injected into the medullary cavity, and whether there are cells or blood leaking out from the injection site was observer.
The needle was kept in the medullary cavity for 1 min and then was withdrawn to enable the full cell spreading, and the injection site was pressed by a cotton swab for 1 min and closed with bone cement. The wound was sutured and treated with penicillin powder. The PWT was measured 3 days after modeling, where those rat models with a significant lower PWT were considered as successful BCP rat models, and the undesirable models were removed.
(S1) Healthy adult SD rats, weighing 180-220 g, were selected, numbered on tails and transferred to the same cage (15 rats in total).
(S2) The rats were maintained in the measuring room for 2 h for adaptation.
The measurement was repeated 3-5 times for each rat with an interval of 5-10 min, and the results were averaged. The rats were allowed to rest for several hours to build a BCP model.
Those unsuccessful models were removed, and on the 22nd day after modeling, the successfully-established models were randomly divided into 3 groups, where the groups A-C were subcutaneously with normal saline, […], respectively. 1.5 h later, the PWT of the right hind paw of each group was measured. Each rat was measured 3-5 times with an interval of 5-10 min, and the PWTs were averaged as the practical PWT (unit: g). The drug administration was performed twice a day (at 9:30 a.m. and 4:30 p.m.) for consecutive 4 days, and the PWT of each group before and after administration was measured in the morning every day. […]

[2] = test system: CCI-induced neuropathic pain rat model; test: Analgesic effect on mechanical hyperalgesia (PWT) in CCI-induced neuropathic pain rat model; assay type: in vivo
Procedure: The chronic constriction nerve injury (CCI)-induced neuropathic pain rat model was built according to a published method (Bennett G J, et al. Pain, 1988). The experimental rats were anesthetized by intraperitoneal injection of 10 wt % chloral hydrate (300 mg/kg), and then placed on a super-clean bench, and the operation area was disinfected with iodophor.
The ligation tightness should be adjusted to cause slight twitching of a leg on an operated side of the rat without affecting the blood circulation of the epineurium. The wound was sutured layeredly and wiped with iodophor according to the postoperative situation. The rats were transferred back into a cage for rest upon fully recovering. The PWT was measured 5 days after modeling, where those with a significant lower PWT were considered as successful neuropathic pain rat models, and the undesirable rats were excluded.
(S1) A total of 15 healthy adult SD rats, weighing 180-220 g, were selected, numbered on tails and placed in the same cage.
(S2) The rats were raised in a measuring room for 2 h for adaptation.
The measurement was repeated 3-5 times for each rat at an interval of 5-10 min, and the results were averaged. Then the rats were allowed to rest for several hours and then adopted to build a CCI-induced neuropathic pain model.
(S4) The PWT was measured on the morning of the 3rd day and the 6th day after the modeling, and those unsuccessful models were removed. And on the 6th after the modeling, the successful rat models were randomly divided into 3 groups, where the group A was injected with normal saline; the group B was injected with 5 mg/kg of morphine; and the group C was intradermally injected with 8 μg/kg of the short peptide P10581 into the left hind paw. 1 h later, the PWT of each group was recorded when the left hind paw generated mechanical withdrawal. Each of the rats was measured 3-5 times at an interval of 5-10 min, and the PWTs were averaged as the actual PWT (unit: g). The drug injection was fixedly performed at 9:00 a.m. and 5:30 p.m. from the 6th day to the 14th day after modeling, and the PWT of each group was measured before and after administration every other day. On the 15th day after modeling, the group B was injected with 8 μg/kg of the short peptide P10581 and the group C was injected with 5 mg/kg of the morphine, and the PWT of the group B and group C was recorded when the mechanical withdrawal occurred to the left hind paw.
(1) 30 healthy adult SD rats, weighing 180-220 g, were selected to build a CCI-induced neuropathic pain model. On the 8th day after the modeling, successfully-established models were randomly divided into 6 groups, where the group A was injected with 0.45 μg/kg of the short peptide P10581; the group B was injected with 0.9 μg/kg of the short peptide P10581; the group C was injected with 1.8 μg/kg of the short peptide P10581; the group D was injected with 3.6 μg/kg of the short peptide P10581; the group E was injected with 7.2 μg/kg of the short peptide P10581; and the group F was injected with 8.5 μg/kg of the short peptide P10581. The PWT of each group was measured 1.5 h later.
(2) Each group was injected with 7.2 μg/kg of the short peptide P10581 at 5:30 p.m. on the 8th day after modeling, and then continuously injected from the 9th day to the 16th day 16 (injected with 7.2 μg/kg of the short peptide P10581 at 9:00 a.m. and 5:30 p.m. a day). The PWT of rats before and after administration in the morning was measured every other day.
(3) On the 17th day after modeling, the six groups were injected with different doses of the short peptide P10581, respectively, according to step (1). 1.5 h later, the PWT of each group was measured to evaluate the effect of dose.
(1) 15 healthy adult SD rats, weighing 180-220 g, were selected to build a CCI-induced neuropathic pain model.

[3] = 14.4 μg/kg, twice a day, 4 days
[4] = 8 μg/kg i.d., twice a day, repeated

Molecule | analgesic effect / tolerance after repeated injection ([1]; rat, in vivo) | analgesic effect on BCP ([1]; rat, in vivo) | analgesic effect / tolerance after repeated injection ([2]; rat, in vivo) | analgesic effect of morphine after repeated P10581 ([2]; rat, in vivo) | analgesic effect on BCP, low dose ([1]; 0.2 μg/kg S.C.) | analgesic effect on BCP, low dose ([1]; 0.4 μg/kg S.C.) | analgesic effect on BCP [1, 3] | analgesic tolerance after repeated injection [1, 3] | analgesic effect on neuropathic pain threshold, low dose ([2]; 0.1 μg/kg i.d., twice a day) | IC50 before vs after repeated administration ([2]; 7.2 μg/kg i.d. repeated (FIG. 8D)) | change of PWT after repeated high-dose administration ([2]; 7.2 μg/kg i.d., twice a day, 9 days, test doses 0.45-8.5 μg/kg) | analgesic effect in morphine-tolerant rats ([2]; 8 μg/kg i.d. on day 10 after repeated morphine 5 mg/kg) | analgesic effect on neuropathic pain [2, 4] | analgesic tolerance after repeated injection [2, 4] | administration dose at which analgesic effect reached the peak ([2]; neuropathic pain, i.d.) [µg/kg]
CN1CC[C@]23c4c5ccc(O)c4O[C@H]2[C@@H](O)C=C[C@H]3[C@H]1C5 [morphine, reference compound] | disappeared at day 4; also recorded: completely lost the analgesic effect on BCP | significantly alleviated | eventually lost the analgesic effect | the same analgesic effect was still kept | – | – | – | – | – | – | – | – | – | – | –
WKCNPNDDKCCRPKLKC [P10581] | – | – | – | – | no analgesic effect | no analgesic effect on BCP | significantly alleviate the BCP | without developing the analgesic tolerance | no effect on the threshold of neuropathic pain in rats | did not bring significant difference to the IC50 | no obvious change occurred to the PWT | neuropathic pain threshold of rats can be reversed | neuropathic pain was alleviated | no analgesic tolerance occurred | 7.2
